Patent US12268739B2, “Use of toll-like receptor 2 (TLR-2) agonist for modulating human immune response” (Children's Medical Center Corporation, priority 2018, dated 2025)
“Also recorded” adds a separate entry of the source.

Assays:
[1] = system: human adult PBMCs; assay: Cytokine production by stimulated human adult PBMCs (ELISA / multiplex); format: cell-based; conditions: for Adult PBMCs (median ng/ml) IL-6 (N = 7) / Adult PBMCs (median ng/ml) TNFa (N = 13): human adult PBMCs, compounds at 100 µM (FIG. 7), ELISA
Protocol: ELISAs and Multiplex-Analyte Assays. Supernatants derived from human PBMCs stimulations were assayed by ELISA for TNF and IL-6 (ThermoFisher Scientific; Waltham, MA, USA). Cytokine and chemokine expression profiles (e.g., IFNγ, IL-9, IL-10, IL-12 (p70), IL-13, IL-1β, IL-23, IL-27, IL-28A, IL-33, IL-6, MIP-3α/CCL20, and TNF) in cell culture supernatants were measured using a customized Milliplex® Human Th17 Magnetic Bead Panel according to the manufacturer's instructions (Millipore, Chicago, IL, USA). Assays were read and analyzed on the Luminex® 100/200TM System and xPOTENT® software (Luminex, Austin, TX). A minimum threshold was set at the minimum detectable concentration for each individual assay, defined as three standard deviations above the mean background.
PBMCs were isolated from blood using a Ficoll density gradient. PBMCs either used fresh or were stored at 5×10^7 cells per vial in 1 mL RPMI containing 20% autologous plasma and 10% DMSO at −80° C. until use. […] PBMCs isolated from human adult donors or THP1-NF-κB cells were resuspended at a concentration of 10^5 cells/200 μl of RPMI supplemented with 10% of platelet-poor plasma or THP1 culture medium, respectively. […] After 24 hours of incubation (37° C., 5% CO2), plates were spun down (500×g, room temperature, 5 minutes) and supernatants were harvested for further analysis.

[2] = system: THP1-NF-κB cells; assay: THP1-NF-κB cell stimulation for 24 hours, secreted luciferase luminescence; format: cell-based, human; conditions: for THP1 cells (relative luminescence units, N = 4) Comp at 25 uM / THP1 cells (relative luminescence units, N = 4) Comp at 100 uM: NF-κB-dependent luminescence, 24 hours; for THP1 cells (relative luminescence units, N = 4) Comp at 25 uM: compound at 25 uM; for THP1 cells (relative luminescence units, N = 4) Comp at 100 uM: compound at 100 uM
Protocol: (§1) THP-1 Cell Line and Culture Conditions. The THP1-Lucia™ cell line was obtained from Invivogen (San Diego, CA). THP1-Lucia cells, which are human monocytic cells derived from the blood of a child with leukemia, contain an NF-kB-inducible Luc reporter construct. This allows NF-kB activation to be measured by quantifying the luminescence from the secreted luciferase enzyme. THP1-Lucia cells were cultured in RPMI 1640 supplemented with 10% non-heat inactivated fetal bovine serum (FBS), 10 mM HEPES, 1.0 mM sodium pyruvate, 50 ug/ml Pen-Strep, and 100 ug/mL Normocin™. Once cultured, the cells were stored in a 37° C. incubator with 5% CO2 and a humidified atmosphere. Cells were passaged every 2-3 days and not allowed to exceed a concentration of 2.0×10^6 cells/ml media.
PBMCs were isolated from blood using a Ficoll density gradient. PBMCs either used fresh or were stored at 5×10^7 cells per vial in 1 mL RPMI containing 20% autologous plasma and 10% DMSO at −80° C. until use. Stimulation plates were prepared by transferring 0.66 μl of DMSO-dissolved compounds (30 or 7.5 mM) to each well of a round bottom 96-well plate. PBMCs isolated from human adult donors or THP1-NF-κB cells were resuspended at a concentration of 10^5 cells/200 μl of RPMI supplemented with 10% of platelet-poor plasma or THP1 culture medium, respectively. 200 μl of the cell suspension were transferred to each well resulting in a final compound concentration of 100 or 25 μM. After 24 hours of incubation (37° C., 5% CO2), plates were spun down (500×g, room temperature, 5 minutes) and supernatants were harvested for further analysis.

[3] = system: NF-κB reporter THP1 cells; assay: NF-kB-induced luminescence HTS in THP1-Lucia cells (384-well); format: cell-based, human; conditions: ranked at 3.3 μM; ~200,000 compounds tested
Text: HTS Overview: To identify immunomodulators/adjuvants that robustly activate human immune cells, ˜200,000 small molecules were screening in a THP1 cell-based assay. The chemical libraries screened included known bioactive and commercial libraries from various sources including commercial libraries such as ChemDiv, ChemBridge, and Asinex. All libraries were owned and provided by the Institute of Chemistry and Cell Biology (ICCB)—Longwood (Harvard Medical School). The project primary screen incorporated two distinct arms: a) a luciferase-based screen which corresponds to the relative activation of the NF-κB reporter; and b) a fluorescence-based screen, corresponding to the phenotypic adherence, a distinct marker of cell activation, of the human monocytic THP-1 cell lines. Described herein are small molecules identified in the screen that induce NF-kB activity based on a luciferase-based THP-1 cell screen.
as §1
NF-kB-induced Luminescence Assay. THP1-Lucia cells between passage 15 and 18 and suspended in culture medium were dispensed into 384-well black clear-bottom plates (Corning 3712) at 30,000 cells/30 μl/well using a Combi liquid dispenser. To allow comparison to a benchmark small molecule with known immune stimulating activity, cells at the same concentration were stimulated with 50 μM R848, a TLR7/8 agonist, in 0.3% DMSO and added to every other well of column 24, which was left empty of cells, by multichannel pipette at the same volume. Five μl of 700 nM Phorbol myristate acetate (PMA) in THP1 culture media and 2.3% DMSO, a known peripheral blood cell mitogen, was added to every other well of column 23 by multichannel pipette (final concentration in well: 100 nM in 0.3% DMSO). Five μl of THP1 culture media with 2.3% DMSO was added to the remaining wells of column 23 by multichannel pipette (final concentration 0.3% DMSO). One hundred nl aliquots of library compounds diluted in 100% DMSO were transferred from their original 384-well plates to the assay plates using a Seiko pin transfer machine. Each library plate was pinned in duplicate, yielding two assay plates with identical conditions for comparison. Plates were then incubated for 24 hours at 37 C with 5% CO2 in humid conditions. Following incubation, 10 μL of supernatant was removed from each well and transferred to a white plate (Corning 3570) using a Vprep liquid transfer machine. 10 μL of recombinant Lucia protein (Invivogen) diluted 1:2000 in THP1 culture media was added to empty well 24P. Using a Combi liquid dispenser, 50 μL/well of Quanti-Luc substrate (Invivogen) diluted 1:3 in sterile water was added to the assay plate. Immediately after adding the substrate, the luminescence was read using a PerkinElmer Envision plate reader.

[4] = biological target: T1, human TLR2 (Homo sapiens, UniProt O60603); assay: HEK-Blue human TLR cell screening (NF-κB SEAP reporter); format: cell-based; conditions: compounds at 10 μM, fold change over negative controls
T1 construct: expressed in transfected cells; host or cells: HEK-Blue (human embryonic kidney) cells with an NF-kB-inducible SEAP reporter
Protocol: HEK cell screening. Human embryonic kidney (HEK)-Blue cell lines expressing human TLRs (hTLRs) and a secreted embryonic alkaline phosphatase (SEAP) reporter under the control of an NF-κB-inducible promoter were cultured in 96-well plates (50,000-75,000 cells/200 μl/well) and stimulated with the indicated compounds at 10 µM or positive controls. The media added to the wells is designed for detection of NF-κB-induced SEAP expression. After 16-24 hours of incubation optical density (OD) was read at 650 nm on a Molecular Devices SpectraMax 340PC absorbance detector. Positive controls employed in this assay were: heat-killed Listeria monocytogenes (1×10^8 cells/ml) for hTLR2, Poly (I:C) HMW (1 μg/ml) for hTLR3, ? E. coli K12 LPS (100 ng/ml) for hTLR4, S. typhimurium flagellin (100 ng/ml) for hTLR5, CL307 (1 μg/ml) for hTLR7, CL075 (1 μg/ml) for hTLR8 and CpG ODN 2006 (1 μg/ml) for hTLR9.

[5] = biological target: T1, human TLR2; assay: HEK293 assay for human TLR2 selectivity (NF-κB/SEAP); format: cell-based; conditions: 18-24 hours stimulation, titratable
Protocol: (§2) HEK293 assay for human TLR2 and TLR8 selectivity: Human embryonic kidney (HEK) 293 cells expressing human TLR2 or TLR8 with an NF-κB-responsive secreted embryonic alkaline phosphatase (SEAP) reporter gene were obtained from Invivogen (San Diego, CA). Cells were maintained in RPMI or DMEM with 10% heat inactivated-FBS and selection antibiotics per the manufacturer's instructions. Cells were plated at 5×10^5 cells/96-well and stimulated with indicated agonist(s) for 24 hours. Supernatants were harvested and analyzed for NF-κB/SEAP activation using the QuantiBlue kit (Invivogen). Values are expressed as fold change in OD650 over vehicle-only treated samples.

[6] = biological target: T2, human TLR8 (Homo sapiens, UniProt Q9NR97); assay: HEK293 assay for human TLR8 selectivity (NF-κB/SEAP); format: cell-based; conditions: selectivity counter-assay
T2 construct: host or cells: HEK293 cells with an NF-kB-responsive SEAP reporter gene
T2 sequence (Q9NR97 27-1041): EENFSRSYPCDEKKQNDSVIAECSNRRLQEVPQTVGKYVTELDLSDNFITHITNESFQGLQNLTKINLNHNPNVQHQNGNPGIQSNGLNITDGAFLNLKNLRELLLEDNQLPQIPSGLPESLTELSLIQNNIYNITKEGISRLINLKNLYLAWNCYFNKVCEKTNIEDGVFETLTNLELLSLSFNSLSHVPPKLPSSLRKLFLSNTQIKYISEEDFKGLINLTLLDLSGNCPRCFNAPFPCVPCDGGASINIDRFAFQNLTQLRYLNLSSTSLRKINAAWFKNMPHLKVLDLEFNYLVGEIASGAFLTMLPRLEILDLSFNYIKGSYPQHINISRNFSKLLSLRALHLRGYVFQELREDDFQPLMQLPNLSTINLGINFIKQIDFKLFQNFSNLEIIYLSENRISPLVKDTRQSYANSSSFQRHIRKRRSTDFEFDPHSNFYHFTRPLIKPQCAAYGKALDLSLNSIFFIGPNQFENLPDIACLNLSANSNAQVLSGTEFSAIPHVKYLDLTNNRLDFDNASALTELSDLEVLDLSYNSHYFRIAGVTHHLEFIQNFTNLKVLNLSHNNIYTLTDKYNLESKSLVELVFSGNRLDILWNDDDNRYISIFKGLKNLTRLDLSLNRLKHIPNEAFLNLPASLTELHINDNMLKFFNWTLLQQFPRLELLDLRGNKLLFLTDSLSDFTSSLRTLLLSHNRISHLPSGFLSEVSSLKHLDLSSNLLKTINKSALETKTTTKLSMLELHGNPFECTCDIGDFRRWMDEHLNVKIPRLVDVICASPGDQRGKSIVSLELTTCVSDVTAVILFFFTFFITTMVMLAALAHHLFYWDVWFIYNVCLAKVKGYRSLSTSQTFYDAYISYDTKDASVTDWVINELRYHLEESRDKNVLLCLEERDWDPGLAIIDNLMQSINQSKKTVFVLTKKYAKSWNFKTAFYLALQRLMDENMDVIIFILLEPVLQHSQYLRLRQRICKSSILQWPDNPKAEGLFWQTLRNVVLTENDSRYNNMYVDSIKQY
Protocol: as §2

T1 sequence (O60603 21-784): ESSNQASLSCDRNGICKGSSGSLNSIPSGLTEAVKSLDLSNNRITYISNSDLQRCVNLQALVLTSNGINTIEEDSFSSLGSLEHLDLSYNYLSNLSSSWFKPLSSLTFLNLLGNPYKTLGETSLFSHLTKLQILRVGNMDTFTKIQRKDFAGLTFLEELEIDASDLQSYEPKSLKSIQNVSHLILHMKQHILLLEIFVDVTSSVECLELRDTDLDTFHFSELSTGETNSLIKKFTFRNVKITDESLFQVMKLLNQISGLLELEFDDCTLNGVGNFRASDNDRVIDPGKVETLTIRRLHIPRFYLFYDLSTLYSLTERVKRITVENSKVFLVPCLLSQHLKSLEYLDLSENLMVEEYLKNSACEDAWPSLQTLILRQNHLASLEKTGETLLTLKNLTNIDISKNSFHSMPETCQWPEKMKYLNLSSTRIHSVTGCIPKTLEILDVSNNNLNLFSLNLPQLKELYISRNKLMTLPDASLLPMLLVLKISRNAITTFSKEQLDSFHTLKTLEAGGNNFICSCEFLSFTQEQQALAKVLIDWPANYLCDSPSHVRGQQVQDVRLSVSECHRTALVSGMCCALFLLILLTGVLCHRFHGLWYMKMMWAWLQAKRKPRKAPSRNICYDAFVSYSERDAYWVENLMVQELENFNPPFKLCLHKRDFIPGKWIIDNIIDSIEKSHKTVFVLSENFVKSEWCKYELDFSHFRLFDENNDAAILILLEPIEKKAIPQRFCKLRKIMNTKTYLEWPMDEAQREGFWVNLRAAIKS

SMILES	Activation of human adult PBMCs (cytokine levels by multiplex assay) ([1]; 384-well plates, 24 hours, 0.05-33 μM)	Activation of human adult PBMCs ([1]; 384 and 96 well assay)	Activation of THP1 cells ([2]; 384 and 96 well assay)	Efficacy in activating NF-κB in THP1 cells (screening hits) [3]	Activation of human TLR2 (NF-κB activation in TLR-expressing HEK-Blue cells) [4]	Adult PBMCs (median ng/ml) IL-6 (N = 7) ([1]; 24 hours)	Adult PBMCs (median ng/ml) TNFa (N = 13) ([1]; 24 hours)	THP1 cells (relative luminescence units, N = 4) Comp at 25 uM [2]	THP1 cells (relative luminescence units, N = 4) Comp at 100 uM [2]	TLR2 activation in HEK TLR2 cells (SEAP) [5]	TLR8 induction in HEK TLR8 cells (SEAP) [6]
COC(=O)c1c(NC(=O)CN2CCC3(CC2)OCCO3)sc2c1CCCC2 [Compound 004]	activates human adult PBMCs in a concentration-dependent manner	induced activation	induced activation of THP1 cells	most effective NF-κB activators; also recorded: most effective NF-kB activators	activate human TLR2; also recorded: activated the human TLR2-expressing human embryonic kidney (HEK)-Blue cell line	–	–	–	–	–	–
CCOC(=O)c1c(NC(=S)Nc2ccccc2OC)sc2c1CC(C)(C)OC2 [Compound 070]	–	–	–	most effective	activate human TLR2	–	–	–	–	–	–
CNC(=O)c1c(NC(=O)c2ccc(S(=O)(=O)N(C)C)cc2)sc2c1CCCC2 [Compound 80.3]	–	–	–	–	–	0.008 ng/mL	0.008 ng/mL	2835 relative luminescence units	3630 relative luminescence units	induced TLR2 specific activation	without induction of TLR8
CNC(=O)c1c(NC(=O)c2ccc(S(=O)(=O)N3CCCC3)cc2)sc2c1CCC2 [Compound 80.10]	–	–	–	–	–	0.012 ng/mL	0.008 ng/mL	3576 relative luminescence units	4814 relative luminescence units	induced TLR2 specific activation	without induction of TLR8
CNC(=O)c1c(NC(=O)c2ccc(S(=O)(=O)N(C)C)cc2)sc(C)c1C [Compound 80.15]	–	–	–	–	–	0.008 ng/mL	0.0225 ng/mL	6369 relative luminescence units	9715 relative luminescence units	induced TLR2 specific activation	without induction of TLR8
